Reference: PubChem BioAssay AID248 (DTP/NCI, 2004)
Several values for one entry are separate records, joined by “and”; a condition that tells them apart may be missing. Equal values may be shown once. Toxic doses and inconclusive results are not listed. Rule as the data show it: active = T/C of 150% or more; inactive = T/C below 125%.

Test system: L1210 leukemia ip in BDF1 mice, survival T/C
Assay: NCI In Vivo Anticancer Drug Screen. Data for tumor model L1210 Leukemia (intraperitoneal) in B6D2F1 (BDF1) mice
Details: endpoint: mean survival time, higher = longer survival
How it was run: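 Value reflects the ratio of survival in compound-treated mice to survival in vehicle-treated controls, with both groups carrying the same transplanted tumor.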

[1] = dose: 25.0 mg/kg/injection, schedule: Q04DX002 (ip), vehicle: Klucel (hydroxypropylcellulose) (HPC)
[2] = dose: 50.0 mg/kg/injection, schedule: Q04DX002 (ip), vehicle: Klucel (hydroxypropylcellulose) (HPC)
[3] = dose: 100.0 mg/kg/injection, schedule: Q01DX009 (ip), vehicle: Klucel (hydroxypropylcellulose) (HPC)
[4] = dose: 100.0 mg/kg/injection, schedule: Q04DX003 (ip), vehicle: Klucel (hydroxypropylcellulose) (HPC)
[5] = dose: 200.0 mg/kg/injection, schedule: Q01DX009 (ip), vehicle: Klucel (hydroxypropylcellulose) (HPC)
[6] = dose: 200.0 mg/kg/injection, schedule: Q04DX003 (ip), vehicle: Klucel (hydroxypropylcellulose) (HPC)
[7] = dose: 400.0 mg/kg/injection, schedule: Q01DX009 (ip), vehicle: Klucel (hydroxypropylcellulose) (HPC)
[8] = dose: 400.0 mg/kg/injection, schedule: Q04DX003 (ip), vehicle: Klucel (hydroxypropylcellulose) (HPC)
[9] = dose: 50.0 mg/kg/injection, schedule: Q01DX001 (ip), vehicle: carboxymethylcellulose (CMC)
[10] = dose: 100.0 mg/kg/injection, schedule: Q01DX001 (ip), vehicle: carboxymethylcellulose (CMC)
[11] = dose: 200.0 mg/kg/injection, schedule: Q01DX001 (ip), vehicle: carboxymethylcellulose (CMC)
[12] = dose: 400.0 mg/kg/injection, schedule: Q01DX001 (ip), vehicle: carboxymethylcellulose (CMC)
[13] = dose: 100.0 mg/kg/injection, schedule: Q04DX002 (ip), vehicle: saline with Tween-80
[14] = dose: 200.0 mg/kg/injection, schedule: Q04DX002 (ip), vehicle: saline with Tween-80
[15] = dose: 400.0 mg/kg/injection, schedule: Q04DX002 (ip), vehicle: saline with Tween-80
[16] = dose: 100.0 mg/kg/injection, schedule: Q01DX001 (ip), vehicle: saline
[17] = dose: 200.0 mg/kg/injection, schedule: Q01DX001 (ip), vehicle: saline
[18] = dose: 400.0 mg/kg/injection, schedule: Q01DX001 (ip), vehicle: saline
[19] = dose: 50.0 mg/kg/injection, schedule: Q01DX009 (ip), vehicle: saline
[20] = dose: 100.0 mg/kg/injection, schedule: Q01DX009 (ip), vehicle: saline
[21] = dose: 200.0 mg/kg/injection, schedule: Q01DX009 (ip), vehicle: saline
[22] = dose: 100.0 mg/kg/injection, schedule: Q04DX003 (ip), vehicle: saline
[23] = dose: 200.0 mg/kg/injection, schedule: Q04DX003 (ip), vehicle: saline
[24] = dose: 400.0 mg/kg/injection, schedule: Q04DX003 (ip), vehicle: saline

Measured: T/C

O=C(c1ccccc1)C1NC1c1ccc([N+](=O)[O-])cc1 (stereo unspecified)
inactive: dose: 50.0 mg/kg/injection, schedule: Q01DX001 (ip), vehicle: Klucel (hydroxypropylcellulose) (HPC) 89 % of control | dose: 100.0 mg/kg/injection, schedule: Q01DX001 (ip), vehicle: Klucel (hydroxypropylcellulose) (HPC) 97 % of control | dose: 200.0 mg/kg/injection, schedule: Q01DX001 (ip), vehicle: Klucel (hydroxypropylcellulose) (HPC) 97 % of control | dose: 400.0 mg/kg/injection, schedule: Q01DX001 (ip), vehicle: Klucel (hydroxypropylcellulose) (HPC) 92 % of control

O=C1c2ccccc2C(=Cc2c3ccccc3cc3ccccc23)c2ccccc21
inactive: [1] 97 % of control | [2] 106 % of control | dose: 100.0 mg/kg/injection, schedule: Q04DX002 (ip), vehicle: Klucel (hydroxypropylcellulose) (HPC) 94 % of control

O=C1C2C(C(=O)N1c1ccc(Br)cc1)C1(Cl)C(Cl)=C(Cl)C2(Cl)C1(Cl)Cl (stereo unspecified)
inactive: [3] 104 % of control | [4] 101 % of control | [5] 102 % of control | [6] 111 % of control | [7] 96 % of control | [8] 104 % of control

CSc1ccc(NC(=O)Nc2cccc(O)c2)cc1
inactive: [3] 101 % of control | [4] 101 % of control | [5] 103 % of control | [6] 106 % of control | [7] 101 % of control | [8] 98 % of control

CCOP(=O)(Nc1ccc2c(c1)Cc1cc([N+](=O)[O-])ccc1-2)OCC
inactive: [9] 97 % of control | [10] 94 % of control | [11] 92 % of control | [12] 94 % of control

CC(CO)(CO)Cc1ccccc1
inactive: [13] 97 % of control | [14] 108 % of control | [15] 120 % of control

CN(C)N=Nc1ccccc1C(=O)NN
inactive: dose: 18.75 mg/kg/injection, schedule: Q01DX009 (ip), vehicle: Klucel (hydroxypropylcellulose) (HPC) 94 % of control and 110 % of control | dose: 37.5 mg/kg/injection, schedule: Q01DX009 (ip), vehicle: Klucel (hydroxypropylcellulose) (HPC) 105 % of control and 107 % of control | [9] 101 % of control | dose: 75.0 mg/kg/injection, schedule: Q01DX009 (ip), vehicle: Klucel (hydroxypropylcellulose) (HPC) 100 % of control and 115 % of control | [10] 101 % of control | dose: 150.0 mg/kg/injection, schedule: Q01DX009 (ip), vehicle: Klucel (hydroxypropylcellulose) (HPC) 107 % of control | [11] 101 % of control

CCOC(Nc1ccccc1[N+](=O)[O-])C(=O)c1ccccc1 (stereo unspecified)
inactive: [16] 91 % of control | [17] 86 % of control | [18] 89 % of control

Cc1ccc(/C(=N\N=C(N)N)C2CC2)cc1
inactive: dose: 15.0 mg/kg/injection, schedule: Q01DX Z (ip), vehicle: methylcellulose (MC) 102 % of control | dose: 30.0 mg/kg/injection, schedule: Q01DX Z (ip), vehicle: methylcellulose (MC) 113 % of control | dose: 60.0 mg/kg/injection, schedule: Q01DX Z (ip), vehicle: methylcellulose (MC) 112 % of control | dose: 120.0 mg/kg/injection, schedule: Q01DX Z (ip), vehicle: methylcellulose (MC) 97 % of control | dose: 120.0 mg/kg/injection, schedule: Q01DX Z (oral), vehicle: methylcellulose (MC) 96 % of control | dose: 240.0 mg/kg/injection, schedule: Q01DX Z (ip), vehicle: methylcellulose (MC) 99 % of control | dose: 240.0 mg/kg/injection, schedule: Q01DX Z (oral), vehicle: methylcellulose (MC) 98 % of control | dose: 480.0 mg/kg/injection, schedule: Q01DX Z (oral), vehicle: methylcellulose (MC) 90 % of control

CC(=O)Nc1ccc(OCCOC(=O)Nc2ccc(Cl)c(C(F)(F)F)c2)cc1
inactive: dose: 12.5 mg/kg/injection, schedule: Q01DX009 (ip), vehicle: carboxymethylcellulose (CMC) 95 % of control and 100 % of control | dose: 25.0 mg/kg/injection, schedule: Q01DX009 (ip), vehicle: carboxymethylcellulose (CMC) 95 % of control and 97 % of control | dose: 25.0 mg/kg/injection, schedule: Q04DX002 (ip), vehicle: carboxymethylcellulose (CMC) 92 % of control and 93 % of control | dose: 50.0 mg/kg/injection, schedule: Q04DX002 (ip), vehicle: carboxymethylcellulose (CMC) 95 % of control and 90 % of control | [10] 97 % of control and 101 % of control | dose: 100.0 mg/kg/injection, schedule: Q04DX003 (ip), vehicle: carboxymethylcellulose (CMC) 92 % of control and 101 % of control | [11] 97 % of control and 102 % of control | dose: 200.0 mg/kg/injection, schedule: Q04DX002 (ip), vehicle: carboxymethylcellulose (CMC) 94 % of control | dose: 200.0 mg/kg/injection, schedule: Q04DX003 (ip), vehicle: carboxymethylcellulose (CMC) 92 % of control | [12] 97 % of control and 87 % of control | dose: 400.0 mg/kg/injection, schedule: Q01DX009 (ip), vehicle: carboxymethylcellulose (CMC) 88 % of control and 90 % of control | dose: 400.0 mg/kg/injection, schedule: Q04DX002 (ip), vehicle: carboxymethylcellulose (CMC) 94 % of control and 91 % of control | dose: 400.0 mg/kg/injection, schedule: Q04DX003 (ip), vehicle: carboxymethylcellulose (CMC) 92 % of control and 97 % of control

COc1cc(Cl)ccc1N=CC(=O)c1ccc(C)cc1
inactive: dose: 12.5 mg/kg/injection, schedule: Q04DX002 (ip), vehicle: Klucel (hydroxypropylcellulose) (HPC) 94 % of control | [1] 87 % of control | [2] 115 % of control

O=C(N/N=C/c1ccccn1)C1CCCO1 (stereo unspecified)
inactive: dose: 25.0 mg/kg/injection, schedule: Q01DX009 (ip), vehicle: saline 102 % of control | [19] 102 % of control | [20] 98 % of control and 116 % of control | [21] 117 % of control

CC(=O)NCCCc1c(C)nc(N)[nH]c1=O
inactive: dose: 62.5 mg/kg/injection, schedule: Q01DX001 (ip), vehicle: Klucel (hydroxypropylcellulose) (HPC) 102 % of control | dose: 125.0 mg/kg/injection, schedule: Q01DX001 (ip), vehicle: Klucel (hydroxypropylcellulose) (HPC) 102 % of control | dose: 250.0 mg/kg/injection, schedule: Q01DX001 (ip), vehicle: Klucel (hydroxypropylcellulose) (HPC) 102 % of control

C=CC1COC=C2CN3CCc4cc(OC)c(O)cc4C3CC21 (stereo unspecified)
inactive: [19] 100 % of control | [20] 104 % of control | [22] 100 % of control | [21] 98 % of control | [23] 101 % of control | [24] 97 % of control

CC[n+]1cccc2ccccc21
inactive: [16] 97 % of control

COC1=C(NC(C)(C)C)C(=O)C(OC)=C(NC(C)(C)C)C1=O
inactive: [9] 103 % of control | [10] 97 % of control | [3] 109 % of control | [4] 98 % of control | [11] 109 % of control | [5] 95 % of control | [6] 96 % of control | [12] 109 % of control | [7] 106 % of control | [8] 100 % of control

CCOC(=O)c1c(O)c(=O)[nH]c2ccccc12
inactive: dose: 100.0 mg/kg/injection, schedule: Q01DX009 (ip), vehicle: saline with Tween-80 97 % of control | [13] 101 % of control | dose: 200.0 mg/kg/injection, schedule: Q01DX009 (ip), vehicle: saline with Tween-80 108 % of control | [14] 118 % of control | dose: 400.0 mg/kg/injection, schedule: Q01DX009 (ip), vehicle: saline with Tween-80 101 % of control | [15] 97 % of control

CCOC(=O)NCCCNC(=O)OCC
inactive: [22] 95 % of control | [23] 103 % of control | [24] 97 % of control

O=C(CC(O)c1ccccc1)Nc1ccccn1 (stereo unspecified)
inactive: [16] 98 % of control | [17] 102 % of control | [18] 93 % of control
